US20250136577A1, “HETEROCYCLIC DERIVATIVES AS MALT1 INHIBITORS” (C4X Discovery Limited, priority 2022, published 2025)

Experiments:
[1] = molecular target: MALT1-GS-Ub (6-His-hMALT-1 residues 339-715 fused to ubiquitin) (Homo sapiens (Human), UniProt Q9UDY8); assay: MALT1 Protease Assay 1 (Assay 1), cleavage of fluorogenic tetrapeptide substrate; type: biochemical; settings: MALT1-GS-Ub 300-600 nM, Ac-LVSR-AMC 100 μM, 30 min preincubation, 60 min read
Summary of the method: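 E. coli-expressed MALT1-GS-Ub (300–600 nM) preincubated 30 min at room temperature with compound (1% DMSO final), then Ac-LVSR-AMC (100 μM) added in 50 mM HEPES pH 7.0, 25 mM KCl, 0.1% CHAPS, 1 mM TCEP. Fluorescence (ex 360/em 460 nm) change over 60 min gave % inhibition versus no-enzyme and no-compound controls; IC50 from 4-parameter fit.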

[2] = molecular target: FL hMALT1 enzyme (Homo sapiens (Human), UniProt Q9UDY8); assay: MALT1 Protease Assay 2 (Assay 2), higher sensitivity, cleavage of fluorogenic tetrapeptide substrate; type: biochemical; settings: FL hMALT1 1-10 nM, Ac-LVSR-AMC 100 μM, 0.7 M sodium citrate, 30 min preincubation, 60 min read
Sequence of FL hMALT1 enzyme (Q9UDY8 whole entry): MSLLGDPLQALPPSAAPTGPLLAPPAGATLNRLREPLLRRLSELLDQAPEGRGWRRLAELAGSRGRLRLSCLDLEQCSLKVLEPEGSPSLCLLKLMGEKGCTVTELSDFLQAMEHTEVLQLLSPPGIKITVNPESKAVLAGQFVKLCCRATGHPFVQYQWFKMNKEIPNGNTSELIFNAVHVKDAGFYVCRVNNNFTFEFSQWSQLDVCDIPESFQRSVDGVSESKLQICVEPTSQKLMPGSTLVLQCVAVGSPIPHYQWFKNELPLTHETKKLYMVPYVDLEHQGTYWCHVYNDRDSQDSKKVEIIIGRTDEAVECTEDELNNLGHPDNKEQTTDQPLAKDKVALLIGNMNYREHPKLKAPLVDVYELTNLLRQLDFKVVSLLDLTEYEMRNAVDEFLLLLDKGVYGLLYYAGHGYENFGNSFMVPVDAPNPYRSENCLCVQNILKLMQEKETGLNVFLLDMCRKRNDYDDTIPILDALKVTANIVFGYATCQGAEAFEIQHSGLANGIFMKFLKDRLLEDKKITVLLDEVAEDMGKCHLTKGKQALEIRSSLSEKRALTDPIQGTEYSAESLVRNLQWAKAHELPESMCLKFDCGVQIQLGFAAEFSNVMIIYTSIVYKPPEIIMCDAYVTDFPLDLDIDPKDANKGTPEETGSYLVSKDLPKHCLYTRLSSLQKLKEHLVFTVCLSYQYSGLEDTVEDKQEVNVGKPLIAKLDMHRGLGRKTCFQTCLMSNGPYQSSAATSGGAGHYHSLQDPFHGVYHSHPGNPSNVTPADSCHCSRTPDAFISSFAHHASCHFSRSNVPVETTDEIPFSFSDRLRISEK
Summary of the method: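 After 30 min room-temperature preincubation with compound (1% DMSO), enzyme (1-10 nM) cleaved 100 μM Ac-LVSR-AMC in pH 7.0 HEPES buffer containing 0.7 M sodium citrate, CHAPS and TCEP. Fluorescence (ex 360/em 460 nm) signal was taken as 60 min minus time 0. IC50 came from 4-parameter fits of % inhibition.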

[3] = test system: IL-2 release from stimulated Jurkat cells; assay: Human IL-2 Release Phenotypic Assay (Assay 3); type: cell-based; settings: Homo sapiens, Jurkat, 48 h, Jurkat cells (clone E6-1), 200 ng/ml PMA + 300 ng/ml ionomycin, IL-2 in supernatant by ELISA
Procedure: Human IL-2 Release Phenotypic Assay (Assay 3)
This assay measured the inhibition by MALT1 inhibitors of the IL-2 release from stimulated Jurkat cells, a human immortalized T lymphocyte cell line. IL-2 production from Jurkat cells is regulated by activation of NFκB signalling, which is in turn regulated by MALT1 protease activity.
Jurkat cells (clone E6-1, ATCC) were cultured in RPMI1640 supplemented with 10% (v/v) FBS and 1% (v/v) penicillin/streptomycin (100× liquid stocks). Cells were seeded in 96-well white tissue culture-treated plates (Perkin Elmer) at 50 000 cells/well and incubated overnight at 37° C., 5% CO2. Test compounds in DMSO at half-log dilutions were added to the cells and incubated for 30 mins. Final DMSO concentration was 0.5%. Cells were then stimulated with 200 ng/ml PMA+300 ng/ml ionomycin and incubated for 48 hours. IL-2 present in the supernatant was then measured by ELISA according to the kit instructions (ELISA MAX Deluxe Set Human IL-2, BioLegend). % inhibition was calculated for each well, using 30 μM of the commercially available MALT1 inhibitor, MLT-748, for 100% inhibition controls and no compound for 0% inhibition controls. IC50 values were calculated using GraphPad Prism using 4-parameter non-linear regression curve fit.

Sequence of MALT1-GS-Ub (6-His-hMALT-1 residues 339-715 fused to ubiquitin) (Q9UDY8 other isoform, or with tags, fused parts or gaps): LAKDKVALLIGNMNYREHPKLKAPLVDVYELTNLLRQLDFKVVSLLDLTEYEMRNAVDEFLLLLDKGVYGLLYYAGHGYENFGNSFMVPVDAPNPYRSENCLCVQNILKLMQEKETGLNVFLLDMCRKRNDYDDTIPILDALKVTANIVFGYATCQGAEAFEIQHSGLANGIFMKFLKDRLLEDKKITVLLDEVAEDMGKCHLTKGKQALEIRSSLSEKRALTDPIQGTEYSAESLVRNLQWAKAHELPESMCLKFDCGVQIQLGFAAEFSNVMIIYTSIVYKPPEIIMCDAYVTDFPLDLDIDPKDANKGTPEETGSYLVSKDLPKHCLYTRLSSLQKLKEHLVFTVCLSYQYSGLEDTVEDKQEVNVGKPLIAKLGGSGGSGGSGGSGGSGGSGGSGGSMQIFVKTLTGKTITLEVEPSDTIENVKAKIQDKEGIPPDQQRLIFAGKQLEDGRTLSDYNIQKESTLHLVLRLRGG

Compound: CC(C)[C@@H]1CN(C(=O)Nc2cnc(-n3nccn3)c(Cl)c2)c2cncc(Br)c2N1C [Example 35, (R)-8-Bromo-N-(5-chloro-6-(2H-1,2,3-triazol-2-yl)pyridin-3-yl)-2-isopropyl-1-methyl-2,3-dihydropyrido[3,4-b]pyrazine-4 (1H)-carboxamide]
- IC50 [1]: 730 nM
- IC50 [2]: 60 nM
- IC50 [3]: 170 nM
